Columns and labels:
proteasome = proteasome (Homo sapiens, UniProt Q99436); test: Trypsin-like inhibitory activity of the proteasome (summary); type: biochemical; conditions: proteasome source not stated
[1] = test system: NF-κB/IκB signaling pathway; test: TNF-α stimulated HEK293 cells, IκBα phosphorylation and degradation; type: cell-based, human; conditions: HEK293 cells pre-treated 1 hour, then TNF-α stimulation
Text: Treatment of HEK293 cells (human embryonic kidney) with Tumor Necrosis Factor-alpha (TNF-α) induces phosphorylation and proteasome-mediated degradation of IκBα followed by NF-κB activation.

NF-κB = test: NF-κB/Luc 293 luciferase reporter assay with TNF-α stimulation; type: cell-based, human; conditions: NF-κB/Luc 293 cells, pretreatment before TNF-α
Text: (§1) Furthermore, a stable HEK293 clone (NF-κB/Luc 293) was generated carrying a luciferase reporter gene under the regulation of 5×NF-κB binding sites.

IκBα, p21 and p27 = test: Western blot analyses in NF-κB/Luc 293 cells; type: cell-based, human
Text: as §1

[2] = Maximum tolerated dose determination, intravenous, female BALB/c mice; type: in vivo
Text: In vivo studies were designed to determine the MTD of Salinosporamide A when administered intravenously to female BALB/c mice.

[3] = biological target: T1, proteasome chymotrypsin-like activity in Packed Whole Blood Lysate (Mus musculus, UniProt O55234); test: Whole blood proteasome activity (PWBL assay) after dosing of mice; type: in vivo; conditions: male Swiss-Webster mice
T1 construct: The supernatant (Packed Whole Blood Lysate, PWBL) was transferred to a fresh tube; from tissue; host or cells: packed whole blood cells of Swiss-Webster mice, hypotonic lysate
T1 sequence (O55234 60-264): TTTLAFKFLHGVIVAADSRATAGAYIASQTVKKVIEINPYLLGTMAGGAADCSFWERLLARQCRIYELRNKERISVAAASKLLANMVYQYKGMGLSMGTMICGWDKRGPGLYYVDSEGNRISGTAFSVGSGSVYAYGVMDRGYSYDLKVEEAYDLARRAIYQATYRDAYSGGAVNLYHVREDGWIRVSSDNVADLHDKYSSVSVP
Method: In brief, frozen whole blood samples were thawed on ice for one hour, and resuspended in 700 μL of ice cold 5 mM EDTA, pH 8.0 in order to lyse the cells by hypotonic shock. This represents approximately 2-3 times the volume of the packed whole blood cells. Lysis was allowed to proceed for one hour, and the cellular debris was removed by centrifugation at 14,000×g for 10 minutes. The supernatant (Packed Whole Blood Lysate, PWBL) was transferred to a fresh tube, and the pellet discarded. Protein concentration of the PWBL was determined by BCA assay (Pierce) using BSA as a standard.
Proteasome activity was determined by measuring the hydrolysis of a fluorogenic substrate specific for the chymotrypsin-like activity of proteasomes (suc-LLVY-AMC, Bachem Cat. 1-1395). […] The reactions were initiated by the addition of 10 μL of 0.4 mM suc-LLVY-AMC (prepared by diluting a 10 mM solution of the peptide in DMSO 1:25 with assay buffer), and incubated in a fluorometer (Labsystems Fluoroskan) at 37° C. Hydrolysis of the substrate results in the release of free AMC, which was measured fluorometrically by using λex=390 nm and λem=460 nm. The rate of hydrolysis in this system is linear for at least one hour. The hydrolysis rate of each sample is then normalized to relative fluorescent units per milligram of protein (RFU/mg).
The vehicle control consisted of 2% DMSO in 10% solutol. […]

[4] = test system: Mycobacterium tuberculosis; test: Survival assays of Mycobacterium tuberculosis on agar plates after nitrite exposure; type: cell-based; conditions: plating on agar after 6 days of exposure; present-tense example without data
any other known protease = conditions: Meng et al., 1999; cited from earlier work
[5] = NF-κB/Luc 293 cells, Western blot

Row | Compound | trypsin-like inhibitory activity (proteasome) [nM] | phosphorylated IκBα level [1] | luciferase activity (NF-κB) | levels of cell cycle regulatory proteins p21 and p27 (IκBα, p21 and p27) | degradation of total IκBα (IκBα, p21 and p27; [5]) | phosphorylated-IκBα level (IκBα, p21 and p27; [5]) | behavioral changes ([2]; during the course of the experiment) | well tolerated dose ([2]; i.v. daily for five consecutive days (qdx5)) | tolerated dose ([2]; single intravenous dose (qdx1)) | proteasomal activity in PWBL ([3]; blood 90 min after administration, dose dependent (FIG. 4)) | activity upon oral administration (PWBL proteasome inhibition) ([3]; oral dosing) | antimycobacterial effect of nitrite [4] | EC50 (In vitro cytotoxicity) [µM] | inhibitory activity towards other proteases (any other known protease)
1 | C[C@@]12OC(=O)[C@]1([C@@H](O)[C@@H]1C=CCCC1)NC(=O)[C@@H]2CCCl [Salinosporamide A] | ~10 | promoted the accumulation of phosphorylated IκBα | decreases activity | increase the levels | decreased the degradation of total IκBα | promoted the accumulation of phosphorylated-IκBα | No behavioral changes were noted | up to 0.1 mg/kg | up to 0.25 mg/kg | profound decrease in proteasomal activity in PWBL | active upon oral administration | able to augment the antimycobacterial effect of nitrite | 0.01 to 0.2 | 
2 | CC[C@H](C)[C@H](NC(=O)[C@H]([C@@H](C)CC)N(C)C(C)=O)C(=O)N[C@H](C(=O)N[C@@H](CC(C)C)C(=O)[C@@]1(C)CO1)[C@@H](C)O [Epoxomicin] |  |  |  |  |  |  |  |  |  |  |  |  |  | no inhibitory activity towards any other known protease

Source: patent US20120264678A1, “METHODS OF USING [3.2.0] HETEROCYCLIC COMPOUNDS AND ANALOGS THEREOF FOR TREATING INFECTIOUS DISEASES” (priority 2007, published 2012)
